Each compound was assayed against TRK A (Homo sapiens (Human), UniProt P04629) (assay: HotSpot assay platform, radiometric kinase inhibition). Details: 100 μM ATP, class symbol.
Format: biochemical
Method: The HotSpot assay platform was used to measure kinase/inhibitor interactions as described in Anastassiadis et al., Nat Biotechnol. 29:1039-45, 2011. In brief, for each reaction, kinase and substrate were mixed in a buffer containing 20 mM HEPES (pH 7.5), 10 mM MgCl2, 1 mM EGTA, 0.02% Brij35, 0.02 mg/mL BSA, 0.1 mM Na3VO4, 2 mM DTT, and 1% DMSO. Compounds were then added to each reaction mixture. After a 20-min incubation, ATP (Sigma-Aldrich) and [γ-33P] ATP (PerkinElmer) were added at a final total concentration of 100 μM. Reactions were carried out at room temperature for 2 h and spotted onto P81 ion exchange cellulose chromatography paper (Whatman). Filter paper was washed in 0.75% phosphoric acid to remove unincorporated ATP. The percent remaining kinase activity relative to a vehicle-containing (DMSO) kinase reaction was calculated for each kinase/inhibitor pair. Outliers were identified and removed as described in Anastassiadis et al., Nat Biotechnol. 29:1039-45, 2011. IC50 values were calculated using Prism 5 (GraphPad).

Chain of TRK A (P04629 33-796): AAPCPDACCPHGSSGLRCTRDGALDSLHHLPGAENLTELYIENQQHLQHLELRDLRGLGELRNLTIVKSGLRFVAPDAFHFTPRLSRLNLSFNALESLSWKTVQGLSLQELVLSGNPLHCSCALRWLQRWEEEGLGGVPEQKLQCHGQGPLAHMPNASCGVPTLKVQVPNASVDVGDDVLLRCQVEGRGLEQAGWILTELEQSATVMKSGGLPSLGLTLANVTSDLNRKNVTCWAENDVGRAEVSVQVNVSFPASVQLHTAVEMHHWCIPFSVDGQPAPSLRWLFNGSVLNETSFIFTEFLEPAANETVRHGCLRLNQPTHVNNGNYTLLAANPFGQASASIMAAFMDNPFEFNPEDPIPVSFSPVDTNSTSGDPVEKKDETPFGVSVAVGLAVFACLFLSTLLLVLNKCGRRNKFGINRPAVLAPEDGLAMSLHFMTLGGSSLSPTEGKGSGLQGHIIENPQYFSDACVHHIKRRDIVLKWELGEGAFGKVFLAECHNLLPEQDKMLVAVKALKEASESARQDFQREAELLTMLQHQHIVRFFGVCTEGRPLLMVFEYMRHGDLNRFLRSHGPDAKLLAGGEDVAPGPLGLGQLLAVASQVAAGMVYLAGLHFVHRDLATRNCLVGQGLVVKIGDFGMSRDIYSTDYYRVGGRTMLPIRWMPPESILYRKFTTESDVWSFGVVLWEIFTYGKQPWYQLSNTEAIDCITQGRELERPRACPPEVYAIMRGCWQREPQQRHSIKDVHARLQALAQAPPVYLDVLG

| SMILES | IC50 |
| --- | --- |
| C[C@@H]1CCc2ncc(F)cc2N2CCC[C@H]2c2ccn3ncc(c3n2)C(=O)N1 (single isomer, unassigned) [Compound 16-10] | > 1000 nM |
| C[C@@H]1CCc2ncc(F)cc2N2CCC[C@@H]2c2ccn3ncc(c3n2)C(=O)N1 (single isomer, unassigned) [Compound 16-11] | > 1000 nM |
| C=C1c2ncc(F)cc2[C@@H]2[C@H]3C[C@H]3CN2c2ccn3ncc(c3n2)C(=O)N[C@@H]1C (single isomer, unassigned) [Compound 21-5] | 100 to 1000 nM |
| C[C@H]1CNC(=O)c2cnn3ccc(nc23)N2C[C@@H]3C[C@@H]3[C@H]2c2cc(F)cn1c2=O (single isomer, unassigned) [Compound 23-4] | > 1000 nM |
| C[C@@H]1CCc2ncc(F)cc2N2CCCN2c2ccn3ncc(c3n2)C(=O)N1 [Compound 1-8, (R,1^3E,1^4E)-3^5-fluoro-6-methyl-7-aza-1(5,3)-pyrazolo[1,5-a]pyrimidine-3(3,2)-pyridina-2(1,2)-pyrazalidinacyclooctaphan-8-one] | < 100 nM |
| C[C@@H]1CCn2cc(F)cc(c2=O)N2CCCN2c2ccn3ncc(c3n2)C(=O)N1 [Compound 3-3] | > 1000 nM |
| C[C@@H]1CCc2ncc(F)cc2N2CCC(=O)N2c2ccn3ncc(c3n2)C(=O)N1 [Compound 5-6] | 100 to 1000 nM |
| C[C@@H]1CCc2ncc(F)cc2[C@H]2CCCN2c2ccc3ncc(n3n2)C(=O)N1 [Compound 7-11] | < 100 nM |
| C[C@@H]1/C=C/c2ncc(F)cc2[C@H]2CCCN2c2ccn3ncc(c3n2)C(=O)N1 [Compound 9-7] | < 100 nM |
| C[C@@H]1CCc2cnc(F)cc2C2CCCN2c2ccc3ncc(n3n2)C(=O)N1 (some centres unmarked) [Compound 12-12] | > 1000 nM |
| C[C@@H]1CCc2ncncc2[C@H]2CCCN2c2ccc3ncc(n3n2)C(=O)N1 [Compound 13-11] | < 100 nM |
| C[C@@H]1CCc2ncc(F)cc2[C@H]2[C@@H]3[C@H](CN2c2ccn4ncc(c4n2)C(=O)N1)C3(C)C [Compound 17-12] | > 1000 nM |
| C[C@@H]1CCc2ncc(F)cc2[C@@H]2[C@H]3[C@@H](CN2c2ccn4ncc(c4n2)C(=O)N1)C3(C)C [Compound 17-13] | > 1000 nM |
| O=C1N[C@H](C2CC2)CCc2ncc(F)cc2[C@@H]2[C@H]3C[C@H]3CN2c2ccn3ncc1c3n2 [Compound 20-6] | > 1000 nM |
| C[C@H]1CNC(=O)c2cnn3ccc(nc23)N2C[C@H]3C[C@H]3[C@@H]2c2cc(F)cnc2O1 [Compound 22-6] | < 100 nM |

Further lines, results first:

| IC50 | SMILES |
| --- | --- |
| 100 to 1000 nM | CC1(C)CCc2ncc(F)cc2C2CCCN2c2ccn3ncc(c3n2)NC1=O (racemic) [Compound 8-8] |
| < 100 nM | C=C1c2ncc(F)cc2[C@H]2[C@@H]3C[C@@H]3CN2c2ccn3ncc(c3n2)C(=O)N[C@@H]1C (single isomer, unassigned) [Compound 21-4] |
| < 100 nM | C[C@H]1CNC(=O)c2cnn3ccc(nc23)N2C[C@H]3C[C@H]3[C@@H]2c2cc(F)cn1c2=O (single isomer, unassigned) [Compound 23-3] |
| < 100 nM | C[C@@H]1CCc2ccccc2N2CCCN2c2ccn3ncc(c3n2)C(=O)N1 [Compound 1-17, (R,1^3E,1^4E)-6-methyl-7-aza-1(5,3)-pyrazolo[1,5-a]pyrimidine-2(1,2)-pyrazolidina-3(1,2)-benzacyclooctaphan-8-one] |
| < 100 nM | C[C@@H]1CCOc2ncc(F)cc2N2CCCN2c2ccn3ncc(c3n2)C(=O)N1 [Compound 4-3] |
| < 100 nM | C[C@@H]1CCc2ncc(F)cc2N2CC3(CC3)CN2c2ccn3ncc(c3n2)C(=O)N1 [Compound 6-10] |
| > 1000 nM | C[C@@H]1CCc2ncc(F)cc2[C@@H]2CCCN2c2ccc3ncc(n3n2)C(=O)N1 [Compound 7-12] |
| < 100 nM | C[C@@H]1/C=C\c2ncc(F)cc2[C@H]2CCCN2c2ccn3ncc(c3n2)C(=O)N1 [Compound 10-5] |
| 100 to 1000 nM | C[C@@H]1/C=C\c2ncc(F)cc2[C@@H]2CCCN2c2ccn3ncc(c3n2)C(=O)N1 [Compound 10-6] |
| > 1000 nM | C=C1c2ncc(F)cc2[C@@H]2CCCN2c2ccn3ncc(c3n2)C(=O)N[C@@H]1C [Compound 11-5] |
| < 100 nM | CC1c2ncc(F)cc2[C@H]2CCCN2c2ccn3ncc(c3n2)C(=O)N[C@@H]1C (some centres unmarked) [Compound 11-6] |
| 100 to 1000 nM | C[C@@H]1CCc2ncncc2[C@@H]2CCCN2c2ccc3ncc(n3n2)C(=O)N1 [Compound 13-12] |
| > 1000 nM | C[C@@H]1CCn2cc(nn2)[C@H]2CCCN2c2ccn3ncc(c3n2)C(=O)N1 [Compound 14-6] |
| > 1000 nM | C[C@@H]1CCn2cc(nn2)[C@@H]2CCCN2c2ccn3ncc(c3n2)C(=O)N1 [Compound 14-7] |
| > 1000 nM | C[C@@H]1CCn2nncc2[C@H]2CCCN2c2ccn3ncc(c3n2)C(=O)N1 [Compound 15-10] |
| < 100 nM | C[C@@H]1CCc2ncc(F)cc2[C@H]2[C@@H]3C[C@@H]3CN2c2ccn3ncc(c3n2)C(=O)N1 [Compound 18-11] |
| > 1000 nM | C[C@@H]1CCc2ncc(F)cc2[C@@H]2[C@H]3C[C@H]3CN2c2ccn3ncc(c3n2)C(=O)N1 [Compound 18-12] |
| < 100 nM | O=C1NC2(CCc3ncc(F)cc3[C@H]3[C@@H]4C[C@@H]4CN3c3ccn4ncc1c4n3)CC2 [Compound 19-5] |
| > 1000 nM | O=C1NC2(CCc3ncc(F)cc3[C@@H]3[C@H]4C[C@H]4CN3c3ccn4ncc1c4n3)CC2 [Compound 19-6] |
| < 100 nM | O=C1N[C@H](C2CC2)CCc2ncc(F)cc2[C@H]2[C@@H]3C[C@@H]3CN2c2ccn3ncc1c3n2 [Compound 20-5] |
| > 1000 nM | C[C@H]1CNC(=O)c2cnn3ccc(nc23)N2C[C@@H]3C[C@@H]3[C@H]2c2cc(F)cnc2O1 [Compound 22-7] |
| < 100 nM | C[C@@H]1CCc2ncc(F)cc2[C@H]2[C@H]3[C@@H](CN2c2ccn4ncc(c4n2)C(=O)N1)C3(C)C [Compound 24-10] |
| > 1000 nM | C[C@@H]1CCc2ncc(F)cc2[C@@H]2[C@@H]3[C@H](CN2c2ccn4ncc(c4n2)C(=O)N1)C3(C)C [Compound 24-11] |
